According to ChEMBL document CHEMBL4373724, “An overview of recent progress in siderophore-antibiotic conjugates” (2019):
Converted amounts (≈) assume the structure as drawn.

Tests used:
Format in all cases: functional
Klebsiella pneumoniae [1] = assay: Antimicrobial activity against Klebsiella pneumoniae ATCC 8303 under iron-deficient condition by CLSI protocol based broth microdilution method
Pseudomonas aeruginosa [2] = assay: Antimicrobial activity against Pseudomonas aeruginosa 61 under iron-sufficient condition by CLSI protocol based broth microdilution method
Pseudomonas aeruginosa [3] = assay: Antimicrobial activity against Pseudomonas aeruginosa PA6 under iron-deficient condition by CLSI protocol based broth microdilution method
Escherichia coli [4] = assay: Antimicrobial activity against Escherichia coli ATCC 25922 under iron-sufficient condition by CLSI protocol based broth microdilution method
Pseudomonas aeruginosa [5] = assay: Antimicrobial activity against Pseudomonas aeruginosa KW799 under iron-sufficient condition by CLSI protocol based broth microdilution method
Pseudomonas aeruginosa [6] = assay: Antimicrobial activity against Pseudomonas aeruginosa PA6 under iron-sufficient condition by CLSI protocol based broth microdilution method
Klebsiella pneumoniae [7] = assay: Antimicrobial activity against Klebsiella pneumoniae X68 under iron-deficient condition by CLSI protocol based broth microdilution method
Pseudomonas aeruginosa [8] = assay: Antimicrobial activity against Pseudomonas aeruginosa under iron-deficient condition by CLSI protocol based broth microdilution method
Pseudomonas aeruginosa [9] = assay: Antimicrobial activity against Pseudomonas aeruginosa KW799 under iron-deficient condition by CLSI protocol based broth microdilution method
Pseudomonas aeruginosa [10] = assay: Antimicrobial activity against Pseudomonas aeruginosa 61 under iron-deficient condition by CLSI protocol based broth microdilution method
Pseudomonas aeruginosa [11] = assay: Antimicrobial activity against Pseudomonas aeruginosa PAO1 under iron-sufficient condition by CLSI protocol based broth microdilution method
Klebsiella pneumoniae [12] = assay: Antimicrobial activity against Klebsiella pneumoniae X68 under iron-sufficient condition by CLSI protocol based broth microdilution method
Klebsiella pneumoniae [13] = assay: Antimicrobial activity against Klebsiella pneumoniae ATCC 8303 under iron-sufficient condition by CLSI protocol based broth microdilution method
Pseudomonas aeruginosa [14] = assay: Antimicrobial activity against Pseudomonas aeruginosa PAO1 under iron-deficient condition by CLSI protocol based broth microdilution method
Pseudomonas aeruginosa [15] = assay: Antimicrobial activity against Pseudomonas aeruginosa PA4 under iron-sufficient condition by CLSI protocol based broth microdilution method
Pseudomonas aeruginosa [16] = assay: Antimicrobial activity against Pseudomonas aeruginosa under iron-sufficient condition by CLSI protocol based broth microdilution method
Pseudomonas aeruginosa [17] = assay: Antimicrobial activity against Pseudomonas aeruginosa PA4 under iron-deficient condition by CLSI protocol based broth microdilution method
Escherichia coli [18] = assay: Antimicrobial activity against Escherichia coli ATCC 25922 under iron-deficient condition by CLSI protocol based broth microdilution method
Klebsiella pneumoniae [19] = assay: Antimicrobial activity against Klebsiella pneumoniae 700603 after 18 hrs by CLSI protocol based broth microdilution method; conditions: Klebsiella pneumoniae, 700603, 18 h
Acinetobacter baumannii = assay: Antimicrobial activity against Acinetobacter baumannii ATCC 17961 after 18 hrs by CLSI protocol based broth microdilution method; conditions: ATCC 17961, 18 h
Escherichia coli [20] = assay: Antimicrobial activity against Escherichia coli ATCC 25922 after 18 hrs by CLSI protocol based broth microdilution method; conditions: ATCC 25922, 18 h
Staphylococcus aureus [21] = assay: Antimicrobial activity against Staphylococcus aureus SG 511 after 18 hrs by CLSI protocol based broth microdilution method; conditions: SG 511, 18 h
Pseudomonas aeruginosa [22] = assay: Antimicrobial activity against Pseudomonas aeruginosa ATCC 27853 after 18 hrs by CLSI protocol based broth microdilution method; conditions: ATCC 27853, 18 h
Klebsiella aerogenes = assay: Antimicrobial activity against Enterobacter aerogenes ATCC 35029 after 18 hrs by CLSI protocol based broth microdilution method; conditions: ATCC 35029, 18 h
Enterococcus faecium = assay: Antimicrobial activity against Enterococcus faecium NCTC after 18 hrs by CLSI protocol based broth microdilution method
[23] = tested on: Mycolicibacterium smegmatis; assay: Antitubercular activity against Mycobacterium smegmatis
[24] = tested on: Mycobacterium tuberculosis; assay: Antitubercular activity against Mycobacterium tuberculosis H37Rv
Pseudomonas aeruginosa [25] = assay: Antimicrobial activity against Pseudomonas aeruginosa X620 under iron-deficient condition by broth microdilution method
Pseudomonas aeruginosa [26] = assay: Antimicrobial activity against Pseudomonas aeruginosa X620 under iron-sufficient condition by broth microdilution method
Pseudomonas aeruginosa [27] = assay: Antimicrobial activity against Pseudomonas aeruginosa X621 under iron-deficient condition by broth microdilution method
Staphylococcus aureus [28] = assay: Antimicrobial activity against Staphylococcus aureus X1.1 under iron-deficient condition by broth microdilution method
Staphylococcus aureus [29] = assay: Antimicrobial activity against Staphylococcus aureus X1.1 under iron-sufficient condition by broth microdilution method
Micrococcus luteus [30] = assay: Antimicrobial activity against Micrococcus luteus under iron-deficient condition by broth microdilution method
Escherichia coli [31] = assay: Antimicrobial activity against Escherichia coli X580 under iron-deficient condition by broth microdilution method
Escherichia coli [32] = assay: Antimicrobial activity against Escherichia coli X580 under iron-sufficient condition by broth microdilution method
Escherichia coli [33] = assay: Antimicrobial activity against Escherichia coli EC14 under iron-sufficient condition by broth microdilution method
Micrococcus luteus [34] = assay: Antimicrobial activity against Micrococcus luteus under iron-sufficient condition by broth microdilution method
Escherichia coli [35] = assay: Antimicrobial activity against Escherichia coli EC14 under iron-deficient condition by broth microdilution method
Pseudomonas aeruginosa [36] = assay: Antimicrobial activity against Pseudomonas aeruginosa X621 under iron-sufficient condition by broth microdilution method

Structure (SMILES) | MIC90 (Klebsiella pneumoniae [1]) | MIC90 (Pseudomonas aeruginosa [2]) | MIC90 (Pseudomonas aeruginosa [3]) | MIC90 (Escherichia coli [4]) | MIC90 (Pseudomonas aeruginosa [5]) | MIC90 (Pseudomonas aeruginosa [6]) | MIC90 (Klebsiella pneumoniae [7]) | MIC90 (Pseudomonas aeruginosa [8]) | MIC90 (Pseudomonas aeruginosa [9]) | MIC90 (Pseudomonas aeruginosa [10]) | MIC90 (Pseudomonas aeruginosa [11]) | MIC90 (Klebsiella pneumoniae [12]) | MIC90 (Klebsiella pneumoniae [13]) | MIC90 (Pseudomonas aeruginosa [14]) | MIC90 (Pseudomonas aeruginosa [15]) | MIC90 (Pseudomonas aeruginosa [16]) | MIC90 (Pseudomonas aeruginosa [17]) | MIC90 (Escherichia coli [18]) | further results
CC1(C)S[C@@H]2[C@H](NC(=O)[C@H](NC(=O)CCC(=O)NC(CCCNC(=O)c3cccc(O)c3O)(CCCNC(=O)c3cccc(O)c3O)CCCNC(=O)c3cccc(O)c3O)c3ccccc3)C(=O)N2[C@H]1C(=O)O | > 100 µM | 12.5 µM (≈ 13 µg/mL) | > 200 µM | 150 µM (≈ 156 µg/mL) | 12.5 to 33 µM (≈ 13 to 34.4 µg/mL) | > 200 µM | > 100 µM | 0.05 µM (≈ 0.0521 µg/mL) | 0.05 to 0.067 µM (≈ 0.0521 to 0.0698 µg/mL) | 0.067 µM (≈ 0.0698 µg/mL) | 50 µM (≈ 52.1 µg/mL) | > 200 µM | > 200 µM | 0.39 µM (≈ 0.406 µg/mL) | 25 µM (≈ 26.1 µg/mL) | 33 µM (≈ 34.4 µg/mL) | 0.39 µM (≈ 0.406 µg/mL) | 1.56 µM (≈ 1.63 µg/mL) | 
O=C(CCC(=O)N(O)CCCCCO)NCCCCCN(O)C(=O)CCC(=O)NCCCCCN(O)C(=O)CCC(=O)N1CCN(c2cc3c(cc2F)c(=O)c(C(=O)O)cn3C2CC2)CC1 |  |  |  |  |  |  |  |  |  |  |  |  |  |  |  |  |  |  | MIC (Klebsiella pneumoniae [19]): > 128 µM; MIC (Acinetobacter baumannii): ≥ 128 µM; MIC (Escherichia coli [20]): > 128 µM; MIC (Staphylococcus aureus [21]): 1 µM (≈ 0.933 µg/mL); MIC (Pseudomonas aeruginosa [22]): > 128 µM; MIC (Klebsiella aerogenes): 64 µM (≈ 59.7 µg/mL); MIC (Enterococcus faecium): 64 µM (≈ 59.7 µg/mL)
CC1(C)S[C@@H]2[C@H](NC(=O)[C@H](NC(=O)CCC(=O)NC(CCCNC(=O)c3cccc(O)c3O)(CCCNC(=O)c3cccc(O)c3O)CCCNC(=O)c3cccc(O)c3O)c3ccc(O)cc3)C(=O)N2[C@H]1C(=O)O | > 100 µM | 12.5 µM (≈ 13.2 µg/mL) | > 200 µM | 100 µM (≈ 106 µg/mL) | 12.5 to 25 µM (≈ 13.2 to 26.5 µg/mL) | > 200 µM | > 100 µM | 0.05 µM (≈ 0.0529 µg/mL) | 0.05 to 0.083 µM (≈ 0.0529 to 0.0878 µg/mL) | 0.083 µM (≈ 0.0878 µg/mL) | 50 µM (≈ 52.9 µg/mL) | > 200 µM | > 200 µM | 0.39 µM (≈ 0.413 µg/mL) | 25 µM (≈ 26.5 µg/mL) | 25 µM (≈ 26.5 µg/mL) | 0.21 µM (≈ 0.222 µg/mL) | 6.25 µM (≈ 6.61 µg/mL) | 
CCCCCCCCCCCCCCCCC(=O)N(O)CCCC[C@H](NC(=O)[C@@H]1COC(c2ccccc2O)=N1)C(=O)NC[C@H](NC(=O)CCCO[C@H]1O[C@@H]2O[C@@]3(C)CC[C@H]4[C@H](C)CC[C@@H]([C@H]1C)[C@@]24OO3)C(=O)N[C@H]1CCCCN(O)C1=O |  |  |  |  |  |  |  |  |  |  |  |  |  |  |  |  |  |  | MIC [23]: > 5 µg/mL; MIC [24]: 0.39 µg/mL (≈ 0.334 µM)
CC1(C)S[C@@H]2[C@H](NC(=O)[C@H](N)c3ccc(O)cc3)C(=O)N2[C@H]1C(=O)O [AMOXICILLIN] | > 100 µM | 0.46 µM (≈ 0.168 µg/mL) | > 200 µM | 4.17 µM (≈ 1.52 µg/mL) | 0.46 to 200 µM (≈ 0.168 to 73.1 µg/mL) | > 200 µM | > 100 µM | > 200 µM | 0.39 to 200 µM (≈ 0.143 to 73.1 µg/mL) | 0.39 µM (≈ 0.143 µg/mL) | > 200 µM | 100 µM (≈ 36.5 µg/mL) | 100 µM (≈ 36.5 µg/mL) | > 100 µM | > 200 µM | > 200 µM | > 100 µM | 4.17 µM (≈ 1.52 µg/mL) | 
CC1(C)S[C@@H]2[C@H](NC(=O)[C@H](N)c3ccccc3)C(=O)N2[C@H]1C(=O)O [AMPICILLIN] | > 100 µM | 0.52 µM (≈ 0.182 µg/mL) | > 200 µM | 16.7 µM (≈ 5.84 µg/mL) | 0.52 to 200 µM (≈ 0.182 to 69.9 µg/mL) | > 200 µM | > 100 µM | > 200 µM | 0.78 to 200 µM (≈ 0.273 to 69.9 µg/mL) | 0.78 µM (≈ 0.273 µg/mL) | > 200 µM | > 200 µM | > 200 µM | > 100 µM | > 200 µM | > 200 µM | > 100 µM | 12.5 µM (≈ 4.37 µg/mL) | 
N[C@@H](C(=O)N[C@@H]1C(=O)N2C(C(=O)O)=C(Cl)CC[C@H]12)c1ccccc1 [LORACARBEF ANHYDROUS] |  |  |  |  |  |  |  |  |  |  |  |  |  |  |  |  |  |  | MIC (Klebsiella pneumoniae [19]): 128 µM (≈ 44.8 µg/mL); MIC (Acinetobacter baumannii): > 128 µM; MIC (Escherichia coli [20]): 2 µM (≈ 0.7 µg/mL); MIC (Staphylococcus aureus [21]): 1 µM (≈ 0.35 µg/mL); MIC (Pseudomonas aeruginosa [22]): > 128 µM; MIC (Klebsiella aerogenes): > 128 µM; MIC (Enterococcus faecium): 32 µM (≈ 11.2 µg/mL)
CN[C@H](CC(C)C)C(=O)N[C@H]1C(=O)N[C@@H](CC(N)=O)C(=O)N[C@H]2C(=O)N[C@H]3C(=O)N[C@H](C(=O)N[C@H](C(=O)O)c4cc(O)cc(O)c4-c4cc3ccc4O)[C@H](O)c3ccc(c(Cl)c3)Oc3cc2cc(c3O[C@@H]2O[C@H](CO)[C@@H](O)[C@H](O)[C@H]2O[C@H]2C[C@](C)(N)[C@H](O)[C@H](C)O2)Oc2ccc(cc2Cl)[C@H]1O [VANCOMYCIN] |  |  |  |  |  |  |  |  |  |  |  |  |  |  |  |  |  |  | MIC (Pseudomonas aeruginosa [25]): > 128 µM; MIC (Pseudomonas aeruginosa [26]): > 128 µM; MIC (Pseudomonas aeruginosa [27]): > 128 µM; MIC (Staphylococcus aureus [28]): 0.5 to 4 µM (≈ 0.725 to 5.8 µg/mL); MIC (Staphylococcus aureus [29]): 1 to 4 µM (≈ 1.45 to 5.8 µg/mL); MIC (Micrococcus luteus [30]): 1 to 4 µM (≈ 1.45 to 5.8 µg/mL); MIC (Escherichia coli [31]): 32 µM (≈ 46.4 µg/mL); MIC (Escherichia coli [32]): 32 to 64 µM (≈ 46.4 to 92.8 µg/mL); MIC (Escherichia coli [33]): > 128 µM; MIC (Micrococcus luteus [34]): 2 to 4 µM (≈ 2.9 to 5.8 µg/mL); MIC (Escherichia coli [35]): > 128 µM; MIC (Pseudomonas aeruginosa [36]): > 128 µM
